Measurements taken from PubChem BioAssay AID256 (DTP/NCI, 2004).
Several values for one entry are separate records, joined by “and”; a condition that tells them apart may be missing. Identical values can stand only once. Inconclusive results and toxic doses are left out. Rule for the calls: active = survival T/C of 150% or more; inactive = T/C below 125% in these data.

System: CD2F1 mice, L1210 leukemia ip, survival T/C
Assay: NCI In Vivo Anticancer Drug Screen. Data for tumor model L1210 Leukemia (intraperitoneal) in CD2F1 (CDF1) mice
Conditions: higher = longer survival
Method in brief: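 Ratio T/C, where T is the treated-group value and C the vehicle-dosed control value, from mice implanted with a transplantable tumor.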

[1] = endpoint: mean survival time, dose: 100.0 mg/kg/injection, schedule: Q01DX009 (ip), vehicle: saline with Tween-80
[2] = endpoint: mean survival time, dose: 200.0 mg/kg/injection, schedule: Q01DX009 (ip), vehicle: saline with Tween-80
[3] = endpoint: mean survival time, dose: 400.0 mg/kg/injection, schedule: Q01DX009 (ip), vehicle: saline with Tween-80
[4] = endpoint: mean survival time, dose: 100.0 mg/kg/injection, schedule: Q04DX003 (ip), vehicle: saline with Tween-80
[5] = endpoint: mean survival time, dose: 200.0 mg/kg/injection, schedule: Q04DX003 (ip), vehicle: saline with Tween-80
[6] = endpoint: mean survival time, dose: 100.0 mg/kg/injection, schedule: Q04DX002 (ip), vehicle: saline with Tween-80
[7] = endpoint: mean survival time, dose: 200.0 mg/kg/injection, schedule: Q04DX002 (ip), vehicle: saline with Tween-80
[8] = endpoint: mean survival time, dose: 400.0 mg/kg/injection, schedule: Q04DX002 (ip), vehicle: saline with Tween-80
[9] = endpoint: mean survival time, dose: 50.0 mg/kg/injection, schedule: Q01DX009 (ip), vehicle: Klucel (hydroxypropylcellulose) (HPC)
[10] = endpoint: mean survival time, dose: 100.0 mg/kg/injection, schedule: Q01DX009 (ip), vehicle: Klucel (hydroxypropylcellulose) (HPC)
[11] = endpoint: mean survival time, dose: 200.0 mg/kg/injection, schedule: Q01DX009 (ip), vehicle: Klucel (hydroxypropylcellulose) (HPC)
[12] = endpoint: mean survival time, dose: 100.0 mg/kg/injection, schedule: Q01DX001 (ip), vehicle: saline with Tween-80
[13] = endpoint: mean survival time, dose: 200.0 mg/kg/injection, schedule: Q01DX001 (ip), vehicle: saline with Tween-80
[14] = endpoint: mean survival time, dose: 100.0 mg/kg/injection, schedule: Q01DX001 (ip), vehicle: saline
[15] = endpoint: mean survival time, dose: 200.0 mg/kg/injection, schedule: Q01DX001 (ip), vehicle: saline
[16] = endpoint: mean survival time, dose: 400.0 mg/kg/injection, schedule: Q01DX001 (ip), vehicle: saline
[17] = endpoint: mean survival time, dose: 50.0 mg/kg/injection, schedule: Q01DX009 (ip), vehicle: saline with Tween-80
[18] = endpoint: mean survival time, dose: 100.0 mg/kg/injection, schedule: Q04DX003 (ip), vehicle: saline
[19] = endpoint: mean survival time, dose: 200.0 mg/kg/injection, schedule: Q04DX003 (ip), vehicle: saline

Measured: T/C

O=C1C=C2C(=CCOC2O)O1 (stereo not given)
inactive: endpoint: mean survival time, dose: 0.25 mg/kg/injection, schedule: Q01DX009 (ip), vehicle: Klucel (hydroxypropylcellulose) (HPC) 108 % of control | endpoint: mean survival time, dose: 0.5 mg/kg/injection, schedule: Q01DX009 (ip), vehicle: Klucel (hydroxypropylcellulose) (HPC) 89 % of control and 106 % of control | endpoint: mean survival time, dose: 0.75 mg/kg/injection, schedule: Q01DX009 (ip), vehicle: Klucel (hydroxypropylcellulose) (HPC) 103 % of control | endpoint: mean survival time, dose: 1.0 mg/kg/injection, schedule: Q01DX009 (ip), vehicle: Klucel (hydroxypropylcellulose) (HPC) 101 % of control and 104 % of control | endpoint: mean survival time, dose: 1.5 mg/kg/injection, schedule: Q01DX009 (ip), vehicle: Klucel (hydroxypropylcellulose) (HPC) 104 % of control | endpoint: mean survival time, dose: 2.0 mg/kg/injection, schedule: Q01DX009 (ip), vehicle: Klucel (hydroxypropylcellulose) (HPC) 102 % of control and 103 % of control | endpoint: mean survival time, dose: 3.0 mg/kg/injection, schedule: Q01DX009 (ip), vehicle: Klucel (hydroxypropylcellulose) (HPC) 104 % of control | endpoint: mean survival time, dose: 4.0 mg/kg/injection, schedule: Q01DX009 (ip), vehicle: Klucel (hydroxypropylcellulose) (HPC) 95 % of control and 106 % of control | endpoint: mean survival time, dose: 6.0 mg/kg/injection, schedule: Q01DX009 (ip), vehicle: Klucel (hydroxypropylcellulose) (HPC) 96 % of control

COC1C(C)OC(OC2CC(C)(O)C(C(=O)O)c3cc4c(c(O)c32)C(=O)c2c(O)cc3c(c2C4=O)OC2OC3(C)C(O)C(N(C)C)C2O)C(OC)C1(C)OC (stereo not given)
inactive: endpoint: mean survival time, dose: 5.0 mg/kg/injection, schedule: Q01DX009 (ip), vehicle: other 113 % of control | endpoint: mean survival time, dose: 10.0 mg/kg/injection, schedule: Q01DX009 (ip), vehicle: other 107 % of control | endpoint: mean survival time, dose: 10.0 mg/kg/injection, schedule: Q04DX003 (ip), vehicle: other 113 % of control | endpoint: mean survival time, dose: 20.0 mg/kg/injection, schedule: Q01DX009 (ip), vehicle: other 118 % of control | endpoint: mean survival time, dose: 20.0 mg/kg/injection, schedule: Q04DX003 (ip), vehicle: other 113 % of control | endpoint: mean survival time, dose: 40.0 mg/kg/injection, schedule: Q04DX003 (ip), vehicle: other 117 % of control | endpoint: mean survival time, dose: 80.0 mg/kg/injection, schedule: Q04DX003 (ip), vehicle: other 115 % of control

FC(F)(F)/C([S-])=C(/[S-])C(F)(F)F.[Fe].[c-]1[c-][c-][cH-][c-]1
inactive: endpoint: mean survival time, dose: 75.0 mg/kg/injection, schedule: Q01DX001 (ip), vehicle: other 105 % of control | endpoint: mean survival time, dose: 150.0 mg/kg/injection, schedule: Q01DX001 (ip), vehicle: other 100 % of control

COC1OC(C(COC(C)=O)OC(C)=O)C(OC(C)=O)C(OC(C)=O)C1OC(C)=O (stereo not given)
inactive: [1] 95 % of control | [2] 102 % of control | [3] 104 % of control

CC(=O)NCN(C)N=O
inactive: endpoint: mean survival time, dose: 100.0 mg/kg/injection, schedule: Q04DX002 (ip), vehicle: saline 91 % of control | endpoint: mean survival time, dose: 200.0 mg/kg/injection, schedule: Q04DX002 (ip), vehicle: saline 91 % of control | endpoint: mean survival time, dose: 400.0 mg/kg/injection, schedule: Q04DX002 (ip), vehicle: saline 91 % of control

COc1cc(OC)cc(C2=NNc3n[nH]c(=S)n3N2)c1
inactive: [1] 91 % of control | [4] 93 % of control | [2] 93 % of control | [5] 90 % of control | endpoint: mean survival time, dose: 400.0 mg/kg/injection, schedule: Q04DX003 (ip), vehicle: saline with Tween-80 102 % of control

CCOc1ccc2ccccc2c1C(=O)N(CCCl)CCCl
inactive: endpoint: mean survival time, dose: 25.0 mg/kg/injection, schedule: Q01DX009 (ip), vehicle: saline with Tween-80 94 % of control | [1] 104 % of control

O/N=C(\CN1CCOCC1)c1ccc(Cl)cc1
inactive: endpoint: mean survival time, dose: 50.0 mg/kg/injection, schedule: Q01DX009 (ip), vehicle: saline 107 % of control | endpoint: mean survival time, dose: 100.0 mg/kg/injection, schedule: Q01DX009 (ip), vehicle: saline 96 % of control | endpoint: mean survival time, dose: 200.0 mg/kg/injection, schedule: Q01DX009 (ip), vehicle: saline 103 % of control

CC(C)(C)OC(=O)NCC(=O)ON1C(=O)CCC1=O
inactive: [4] 96 % of control | [5] 87 % of control

O=C(c1cccnc1)c1c[nH]c2ccccc12
inactive: [6] 101 % of control | [7] 97 % of control | [8] 97 % of control

CC(C)OC(=O)COc1ccc(F)cc1F
inactive: [6] 92 % of control | [7] 95 % of control | [8] 89 % of control

OCCN(c1ccccc1)C1CCCCC1
inactive: [9] 113 % of control | [10] 102 % of control | [11] 106 % of control

Nc1ccc(C(=O)Oc2ccc([N+](=O)[O-])cc2)cc1
inactive: [1] 108 % of control | [2] 102 % of control | [3] 98 % of control

NC(=O)/C=C/C(N)=O
inactive: [1] 98 % of control | [2] 98 % of control

Nc1nc2c(ncn2-c2cccc(NC(=O)Nc3ccc(S(=O)(=O)F)c(Cl)c3)c2)c(=O)[nH]1 (tested in a mixture with another compound)
inactive: [12] 97 % of control | [13] 95 % of control

CN(Cc1cnc(N)c(C#N)n1)c1ccc(C(=O)NC(CCC(=O)OC(C)(C)C)C(=O)OC(C)(C)C)cc1 (stereo not given)
inactive: [6] 91 % of control | [7] 91 % of control | [8] 102 % of control

C[As](C)SCC1OC(n2ncc(=O)[nH]c2=O)C2OC(C)(C)OC12 (stereo not given)
inactive: endpoint: median survival time, dose: 12.5 mg/kg/injection, schedule: Q01DX005 (ip), vehicle: distilled water + Tween-80 97 % of control | endpoint: median survival time, dose: 25.0 mg/kg/injection, schedule: Q01DX005 (ip), vehicle: distilled water + Tween-80 105 % of control | endpoint: median survival time, dose: 50.0 mg/kg/injection, schedule: Q01DX005 (ip), vehicle: distilled water + Tween-80 94 % of control | endpoint: median survival time, dose: 100.0 mg/kg/injection, schedule: Q01DX005 (ip), vehicle: distilled water + Tween-80 101 % of control | endpoint: median survival time, dose: 200.0 mg/kg/injection, schedule: Q01DX005 (ip), vehicle: distilled water + Tween-80 101 % of control

CN(N=Nc1ccc(C(N)=O)cc1)C(C)(C)C
inactive: endpoint: mean survival time, dose: 18.75 mg/kg/injection, schedule: Q01DX009 (ip), vehicle: Klucel (hydroxypropylcellulose) (HPC) 97 % of control | endpoint: mean survival time, dose: 37.5 mg/kg/injection, schedule: Q01DX009 (ip), vehicle: Klucel (hydroxypropylcellulose) (HPC) 101 % of control | endpoint: mean survival time, dose: 75.0 mg/kg/injection, schedule: Q01DX009 (ip), vehicle: Klucel (hydroxypropylcellulose) (HPC) 100 % of control | endpoint: mean survival time, dose: 150.0 mg/kg/injection, schedule: Q01DX009 (ip), vehicle: Klucel (hydroxypropylcellulose) (HPC) 106 % of control | endpoint: mean survival time, dose: 300.0 mg/kg/injection, schedule: Q01DX009 (ip), vehicle: Klucel (hydroxypropylcellulose) (HPC) 119 % of control

CCCCC(C(=O)OCC)C(=O)c1ccccc1 (stereo not given) (tested in a mixture with another compound)
inactive: [4] 100 % of control

CCN(CC)S(=O)(=O)c1ccccc1
inactive: [9] 93 % of control | [10] 104 % of control | [11] 96 % of control

C(=C\c1nnnn1C12CC3CC(CC(C3)C1)C2)/c1ccccc1
inactive: [14] 104 % of control | [15] 104 % of control | [16] 96 % of control

COc1cc(OC)c(NC(=O)N2CCN(C)CC2)cc1Cl
inactive: [17] 88 % of control | [1] 94 % of control

CNC(C)C(O)c1ccccc1 (stereo not given)
inactive: [17] 100 % of control | [1] 97 % of control

O=C(C[n+]1cc2ccccc2c2ccccc21)c1ccccc1
inactive: [18] 95 % of control | [19] 86 % of control

Nc1nc(N)c2c(n1)CN(c1ccccc1)C2
inactive: endpoint: mean survival time, dose: 75.0 mg/kg/injection, schedule: Q01DX001 (ip), vehicle: saline 102 % of control | endpoint: mean survival time, dose: 150.0 mg/kg/injection, schedule: Q01DX001 (ip), vehicle: saline 104 % of control | endpoint: mean survival time, dose: 300.0 mg/kg/injection, schedule: Q01DX001 (ip), vehicle: saline 106 % of control

CC(C)(C)C1=CC(=O)C(C(C)(C)C)=CC1=O
inactive: [12] 97 % of control | [13] 103 % of control

CC(=O)NCCN
inactive: endpoint: mean survival time, dose: 50.0 mg/kg/injection, schedule: Q04DX003 (ip), vehicle: saline 101 % of control | [18] 95 % of control | [19] 97 % of control

ONC(CC(O)(NO)NO)c1ccccc1 (stereo not given)
inactive: [14] 107 % of control | [15] 107 % of control | [16] 108 % of control

N#CSCCN1C(=O)C2C3CCC(O3)C2C1=O (stereo not given)
inactive: endpoint: mean survival time, dose: 25.0 mg/kg/injection, schedule: Q04DX002 (ip), vehicle: saline with Tween-80 103 % of control
